Data set [1] concerns the target T1, secondary alcohol dehydrogenase (Lodderomyces parapsilosis, UniProt O42703).
Text: (§1) One unit of enzyme was defined as the amount of enzyme necessary to catalyze the formation of 1 μmol of NADH per min under the assay conditions.
Data set [2] addresses T1, secondary alcohol dehydrogenase. Description: biochemical. Also on record: full length 336 aa, about 40 kDa; gene also expressed in E. coli JM109 (pKK-CPA1). Particulars: for remaining activity at 1000 µM: read-out: Relative activity (remaining activity). Format: biochemical, Candida parapsilosis. The method, then:
After said enzyme was incubated at 30° C. for 30 min in the presence of various reagents, the remaining activity was assayed and expressed as the percentage relative to that (100%) of the untreated enzyme (Table 5).

Data set [3] shares this target. Description: Substrate specificity: reducing activity with ketones/aldehydes (NADH). On the set-up: full length 336 aa, about 40 kDa; gene also expressed in E. coli JM109 (pKK-CPA1). Format: biochemical, Candida parapsilosis. Particulars: reduction, coenzyme NADH, relative to 2-butanone reducing activity (100%).
Data set [4] is described as follows: pH optimum of (S)-2-butanol oxidizing activity. Particulars: KPB, Tris-HCl and Briton-Robinson buffer. Format: biochemical, Candida parapsilosis.
Text: as §1
Data set [5] is described as follows: Specific activity of the purified enzyme, standard assay. The data set is classed as biochemical, Candida parapsilosis. Particulars: purified enzyme after Mono-Q, (S)-2-butanol, pH 9.0, 30° C. The method, then: The wet cells thus obtained were disrupted in a high pressure cell disintegrator, and centrifuged to remove cell debris. To the cell-free extract protamine sulfate was added to remove nucleic acids and microsomes. After centrifugation, the supernatant was brought to 70% saturation with ammonium sulfate, and the precipitate was collected, subjected to anion exchange chromatography on Q-Sepharose FF, eluted with a density gradient of NaCl, and the peak fraction containing said secondary alcohol dehydrogenase activity was collected. The active fraction was then subjected to hydrophobic chromatography on a column of phenyl-Sepharose equilibrated with a buffer containing 1.62 M ammonium sulfate, and the active fraction was eluted by reducing the ammonium sulfate concentration to 0 M (the enzyme activity was assayed as described hereinbefore). After the active fraction was added to a Red Sepharose affinity column, the unretained fraction was subjected to a Superdex 200 gel filtration. The recovered active fraction was subjected to anion exchange chromatography on a Mono Q column and eluted with a density gradient of NaCl. Only active fractions which gave a single band in the purity test on SDS-PAGE were collected.

A short description of data set [6]: Thermostability of the purified enzyme. The data set is classed as physicochemical, Candida parapsilosis. The settings on record: 40° C. for 10 min, pH 8.0, relative to the original activity. The method, then:
After the purified enzyme was incubated at pH 8.0 and 30° C.-70° C. for 10 min, the remaining activity was assayed. Even after the incubation at 40° C. for 10 min, more than 90% of the original enzyme activity was retained (FIG. 5).

A short description of data set [7]: Optimum reaction temperature, standard assay. Format: biochemical, Candida parapsilosis. The method, then:
The secondary alcohol dehydrogenase activity was assayed under the standard assay conditions at different temperature as shown in Table 2.

Data set [8] can be described thus: pH optimum of 2-butanone reducing activity. The data set is classed as biochemical, Candida parapsilosis. Particulars: NADH, KPB, Tris-HCl and Briton-Robinson buffer.
The conditions of data set [9]: relative to that for ethanol; cited from earlier work.
[10] abbreviates: inhibitor 1 mM, 30° C. for 30 min, relative to untreated enzyme (100%).
The mark [11] stands for this setting: oxidation, substrate 5 mM, coenzyme NAD+, relative to (S)-2-butanol oxidizing activity (100%).

Where two headings read alike, the source gives them in different places.

For the molecule `CC(C)CC(C)O` (stereo not shown) [4-Methyl-2-pentanol], in data set [1] (oxidation, substrate 20 mM, coenzyme NAD+, relative to (S)-2-butanol oxidizing activity (100%)), the Relative activity is recorded as 40.8%.
In general, remaining activity refers to the signal under treatment as a percentage of the control signal. For the molecule `OCCS` [b-Mercaptoethanol, 2-mercaptoethanol], the “Inhibition of the enzyme activity (in words)” value (“Inhibition” below) in data set [2] is listed as “markedly inhibited”. Further, the remaining activity at 1000 µM in data set [2] (setting [10]) is 3.2%.
For `NC(=O)CI` [iodoacetamide], the “Inhibition” value in [2] was “markedly inhibited”.
In the case of `O[C@H](CS)[C@H](O)CS` (racemic) [Dithiothreitol], in [2], the “Inhibition” value was “markedly inhibited”. In addition, in data set [2] (setting [10]), the remaining activity at 1000 µM worked out at 0%.
`CC(=O)CCO` [4-Hydroxy-2-butanone]: the Relative activity in [3] (substrate 100 mM) amounted to 41.2%.
As to `CC(=O)c1ccccc1` [Acetophenone], the Relative activity in data set [3] (substrate 20 mM) stood at 121.8%.
For `CCCCCCC(C)O` (racemic) [(RS)-2-Octanol], the Relative activity in [1] (setting [11]) came out at 39.2%.
On to `CCC(C)=O` [2-Butanone], for which, in data set [3] (substrate 100 mM), the Relative activity amounted to 100.0%.
In the case of `OC1CCCCC1` [Cyclohexanol], in data set [1], the Relative activity was 52.8.
Consider `CCCCCC[C@@H](C)O` [(R)-2-Octanol], for which the Relative activity in data set [1] (setting [11]) came out at 0.0%.
As to `CC(=O)C(C)(C)O` [3-Hydroxy-3-methyl-2-butanone], the Relative activity in [3] (substrate 100 mM) is 18.5%.
As to `O=S(=O)(F)Cc1ccccc1` [Phenylmethanesulfonyl fluoride, Phenylmethane-sulfonyl fluoride], the “Relative activity (remaining activity)” value in data set [2] (setting [10]) is given as 69.0%.
Take `O=S(=O)([O-])[O-].[Cu+2]` [CuSO4]: the “Relative activity (remaining activity)” value in data set [2] (setting [10]) came to 25.5%.
Consider `[N-]=[N+]=[N-].[Na+]` [NaN3], for which, in data set [2] (inhibitor 0.02(%), 30° C. for 30 min, relative to untreated enzyme (100%)), the “Relative activity (remaining activity)” value is 89.9%.
Consider `C[C@@H](O)c1ccccc1` [(R)-1-Phenylethanol], for which, in data set [1], the Relative activity is 1.1.
Take `[Cl-].[Cl-].[Zn+2]` [ZnCl2, zinc chloride]: in data set [2], the “Inhibition” value was “markedly inhibited”. Also, in data set [2] (setting [10]), the “Relative activity (remaining activity)” value was determined as 16.4%.
For `CC(C)=O` [Acetone], the Relative activity in data set [3] (substrate 100 mM) turned out to be 123.4%.
Regarding `[Cl][Hg][Cl]` [HgCl2, mercuric chloride], the “Inhibition” value in [2] is on record as “markedly inhibited”. In addition, in data set [2] (setting [10]), the “Relative activity (remaining activity)” value came out at 0.0%.
Turning to `O=C(O)c1cc[c]([Hg][Cl])cc1` [p-Chloromercuribenzoic acid, p-Chloromercuri-benzoic acid], the “Inhibition” value in data set [2] is recorded as “markedly inhibited”; in data set [2] (listed as p-mercuribenzoic acid) it was “inhibited”. Besides, in data set [2] (inhibitor 0.05 mM, 30° C. for 30 min, relative to untreated enzyme (100%)), the “Relative activity (remaining activity)” value is 0.0%.
As for `NO` [NH2 OH], the “Relative activity (remaining activity)” value in data set [2] (inhibitor 0.01 mM, 30° C. for 30 min, relative to untreated enzyme (100%)) is on record as 92.7%.
`CCCCCC[C@H](C)O` [(S)-2-Octanol]: the Relative activity in [1] (setting [11]) was found to be 67.7%.
Turning to `CCN1C(=O)C=CC1=O` [N-Ethylmaleimide], the “Inhibition” value in [2] was “inhibited”. Moreover, in data set [2] (setting [10]), the remaining activity at 1000 µM came to 21.2%.
On to `CCC=O` [Propionaldehyde], for which the Relative activity in data set [3] (substrate 100 mM) is reported as 76.2%.
On to `C[C@H](O)c1ccccc1` [(S)-1-Phenylethanol], for which the Relative activity in [1] is 89.3.
With `O=C(O)CN(CCN(CC(=O)O)CC(=O)O)CC(=O)O` [Ethylenediaminetetraacetic acid, Ethylenediamine-tetraacetic acid], in data set [2], the “Inhibition” value is reported as “not” and the remaining activity at 1000 µM is 102%.
`c1cnc2c(c1)ccc1cccnc12` [o-Phenanthroline]: the “Inhibition” value in data set [2] is listed as “inhibited”. Moreover, the remaining activity at 1000 µM in data set [2] (setting [10]) worked out at 19%.
As to `CO` [Methanol], in data set [1], the Relative activity stood at 0.2.

B1: secondary alcohol dehydrogenase: NAD+-dependent stereospecific secondary alcohol dehydrogenase purified from Candida parapsilosis IFO 1396, SEQ. ID NO: 2 (protein)
chain: MSIPSSQYGFVFNKQSGLNLRNDLPVHKPKAGQLLLKVDAVGLCHSDLHVIYEGLDCGDNYVMGHEIAGTVAAVGDDVINYKVGDRVACVGPNGCGGCKYCRGAIDNVCKNAFGDWFGLGYDGGYQQYLLVTRPRNLSRIPDNVSADVAAASTDAVLTPYHAIKMAQVSPTSNILLIGAGGLGGNAIQVAKAFGAKVTVLDKKKEARDQAKKLGADAVYETLPESISPGSFSACFDFVSVQATFDVCQKYVEPKGVIMPVGLGAPNLSFNLGDLALREIRILGSFWGTTNDLDDVLKLVSEGKVKPVVRSAKLKELPEYIEKLRNNAYEGRVVFNP
As to B1, the “pH optimum for the oxidation of (S)-2-butanol” value in data set [4] is on record as 8.5-9.5. In [5], the Specific activity was found to be 1370 units/mg. Besides, the “Remaining activity after heat treatment” value in data set [6] is reported as “more than 90%”. Further, the “Temperature range of high activity” value in data set [7] was 25-55 °C. Further, the Relative activity was 55% in data set [7] (30 °C); 65% in data set [7] (37 °C); 92% in data set [7] (45 °C); 100% in data set [7] (50 °C); 88% in data set [7] (55 °C); 0% in [7] (60 °C). The same molecule yielded an Optimum reaction temperature in data set [7] (standard assay conditions) of 50 °C. The “pH optimum for the reduction of 2-butanone” value in data set [8] is given as 5.5-6.5.

B2: SADH-1: primary alcohol dehydrogenase derived from baker's yeast (Saccharomyces cerevisiae) (protein, UniProt P00330 2-348, looked up)
Alcohol dehydrogenase 1: SIPETQKGVIFYESHGKLEYKDIPVPKPKANELLINVKYSGVCHTDLHAWHGDWPLPVKLPLVGGHEGAGVVVGMGENVKGWKIGDYAGIKWLNGSCMACEYCELGNESNCPHADLSGYTHDGSFQQYATADAVQAAHIPQGTDLAQVAPILCAGITVYKALKSANLMAGHWVAISGAAGGLGSLAVQYAKAMGYRVLGIDGGEGKEELFRSIGGEVFIDFTKEKDIVGAVLKATDGGAHGVINVSVSEAAIEASTRYVRANGTTVLVGMPAGAKCCSDVFNQVVKSISIVGSYVGNRADTREALDFFARGLVKSPIKVVGLSTLPEIYEKMEKGQIVGRYVVDTSK
On to B2, for which the “Relative activity for 2-butanol” value in data set [9] is recorded as “about 1%”.

These data come from US6255092A, “Stereospecific alcohol dehydrogenase isolated from Candida parapsilosis, amino acid and DNA sequences therefor, and method of preparation thereof” (Daicel Chemical Industries Ltd., priority 1993, dated 2001).
